Experiments:
[1] = target: CSNK2A2 (Homo sapiens, UniProt P19784); test: cell-based
[2] = target: CSNK2A1 (Homo sapiens, UniProt P68400); test: cell-based; format: cell-based
[3] = system: SARS-CoV-2; settings: human lung epithelial A549-ACE2 cells; ref [18]; cited from earlier work
[4] = system: SARS-CoV-2; settings: African green monkey kidney epithelial Vero cells infected with SARS-CoV-2; ref [18]; cited from earlier work
[5] = system: DBT cells; settings: LDH assay, 10 h, concentrations up to 10 μM
[6] = system: A549-ACE2 cells; settings: ref [18]; cited from earlier work
[7] = system: Vero cells; settings: ref [18]; cited from earlier work
[8] = system: SARS-CoV-2 spike protein uptake; format: cell-based, human
[9] = system: MHV-nLuc; test: microbe, parasite or virus in culture; format: cell-based, mouse hepatitis virus (MHV); settings: Murine coronavirus, 10 h, read-out: MHV replication (pIC50) (converted)

CSNK2A1, sequence (P68400 whole entry): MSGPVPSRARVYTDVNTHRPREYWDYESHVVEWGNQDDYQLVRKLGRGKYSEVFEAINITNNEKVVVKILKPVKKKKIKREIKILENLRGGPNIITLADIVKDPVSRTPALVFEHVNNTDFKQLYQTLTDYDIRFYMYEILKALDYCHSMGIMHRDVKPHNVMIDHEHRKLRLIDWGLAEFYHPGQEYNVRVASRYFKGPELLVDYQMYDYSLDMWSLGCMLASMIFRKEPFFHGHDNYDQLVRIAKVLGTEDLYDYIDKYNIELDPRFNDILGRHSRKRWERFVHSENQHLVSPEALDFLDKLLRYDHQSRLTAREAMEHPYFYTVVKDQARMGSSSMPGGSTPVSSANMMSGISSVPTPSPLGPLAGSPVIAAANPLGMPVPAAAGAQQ
CSNK2A2, sequence (P19784 whole entry): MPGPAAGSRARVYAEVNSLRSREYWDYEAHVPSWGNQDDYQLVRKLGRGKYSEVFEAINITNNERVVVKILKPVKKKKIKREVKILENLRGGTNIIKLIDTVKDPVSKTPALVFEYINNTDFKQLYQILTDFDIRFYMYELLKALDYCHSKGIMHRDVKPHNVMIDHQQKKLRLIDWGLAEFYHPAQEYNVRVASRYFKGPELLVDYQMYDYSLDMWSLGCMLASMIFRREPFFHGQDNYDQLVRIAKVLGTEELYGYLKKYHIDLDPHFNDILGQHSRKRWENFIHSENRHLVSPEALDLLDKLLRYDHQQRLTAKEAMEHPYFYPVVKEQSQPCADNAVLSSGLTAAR

| SMILES | IC50 [1] | IC50 [2] | other results |
| --- | --- | --- | --- |
| CCC(=O)Nc1cc(Nc2cc(NC3CC3)n3ncc(C#N)c3n2)ccc1N1CCCC(NC)C1 (stereo not drawn) [Compound 15] | 15.8 nM | 2 nM | selectivity for CSNK2A1 over CSNK2A2 ([2]; from nanoBRET values): 6–8 fold |
| O=C(O)c1ccc2c(c1)nc(Nc1cccc(Cl)c1)c1ccncc12 [silmitasertib] | – | – | inhibition of SARS-CoV-2 infection (pIC50) [3]: < 5; antiviral activity, SARS-CoV-2 (pIC50) [4]: 5.6; effect on cell viability [5]: no effect on cell viability; cell toxicity [6]: cell toxicity at micromolar doses; cell toxicity [7]: cell toxicity at micromolar doses |
| CC(=O)Nc1ccc2ccn(-c3cc(NC4CC(F)(F)C4)n4ncc(C#N)c4n3)c2c1 [Compound 18] | 100 nM | 39.8 nM | – |
| CCC(=O)Nc1cc(Nc2cc(NC3CC3)n3ncc(C#N)c3n2)ccc1C [SGC-CK2–1] | – | – | decrease in spike protein uptake [8]: 70–80%; IC50 [9]: 126 nM |
| CC(=O)Nc1ccc2ccn(-c3cc(NCc4cnn(C)c4)n4ncc(C#N)c4n3)c2c1 [Compound 29] | 200 nM | 158 nM | – |
| CC(=O)Nc1ccc2ccn(-c3cc(N[C@H](C)C#N)n4ncc(C#N)c4n3)c2c1 [Compound 30] | 79.4 nM | 126 nM | – |
| CC(=O)Nc1ccc2ccn(-c3cc(NCC4CCOCC4)n4ncc(C#N)c4n3)c2c1 [Compound 26] | 2000 nM | 100 nM | – |
| CCC(=O)Nc1cc(Nc2cc(NC3CC3)n3ncc(C#N)c3n2)ccc1N(C)CCN [Compound 9] | – | 3.98 nM | – |
| CC(=O)Nc1ccc2ccn(-c3cc(NC4CCN(C(C)=O)CC4)n4ncc(C#N)c4n3)c2c1 [Compound 28] | 398 nM | 63.1 nM | – |
| CC(=O)Nc1ccc2ccn(-c3cc(Sc4ccccc4)n4ncc(C#N)c4n3)c2c1 [Compound 33] | 6310 nM | 6310 nM | – |
| CC(=O)Nc1ccc2ccn(-c3cc(NC45CC(C4)C5)n4ncc(C#N)c4n3)c2c1 [Compound 19] | 79.4 nM | 158 nM | – |
| CC(=O)Nc1ccc2ccn(-c3cc(NC4(C)CC4)n4ncc(C#N)c4n3)c2c1 [Compound 20] | 1580 nM | 501 nM | – |
| CCC(=O)Nc1cc(Nc2cc(NC3CC3)n3ncc(C#N)c3n2)ccc1N(C)CCN1CCCCC1 [Compound 12] | – | 251 nM | – |
| CC(=O)Nc1ccc2ccn(-c3cc(NCC4CCOC4)n4ncc(C#N)c4n3)c2c1 (stereo not drawn) [Compound 25] | 251 nM | 31.6 nM | – |
| CCC(=O)Nc1cc(Nc2cc(NC3CC3)n3ncc(C#N)c3n2)ccc1N1CCNCC1 [Compound 14] | – | 158 nM | – |
| CCC(=O)Nc1cc(Nc2cc(NC3CC3)n3ncc(C#N)c3n2)ccc1N(C)CCN1CCCC1 [Compound 11] | 100 nM | 100 nM | – |

— publication PMC8750650 (bioRxiv, 2022)
